Experimental data from the supplement of paper PMC10307832.

Assays:
Test in all cases: relative viability (nuclei count vs DMSO), 5 days (fraction); higher = more cells survive
HOP-62 = test system: HOP-62
Method in brief: (§1)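 Lung cancer cell lines were seeded in 1536-well plates and dosed by pin tool the next day, with either a single drug or a fixed anchor-drug dose combined with five library-drug doses (not always all listed) spaced in √10 steps. Five days later, one step fixed the cells and stained their nuclei (final 0.05% Triton X-100, 1% formaldehyde, 1 ug/ml Hoechst), and nuclei were counted on 4× images. Relative viability is the nuclei count in treated wells divided by the count in vehicle wells, and each value is the median of duplicate plates.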

H3255 = test system: H3255
Method in brief: as §1

NCI-H2009 = test system: NCI-H2009
Method in brief: as §1

NCI-H727 = test system: NCI-H727
Method in brief: as §1

NCI-H2347 = test system: NCI-H2347
Method in brief: as §1

NCI-H1734 = test system: NCI-H1734
Method in brief: as §1

NCI-H647 = test system: NCI-H647
Method in brief: as §1

PC-14 = test system: PC-14
Method in brief: as §1

NCI-H2126 = test system: NCI-H2126
Method in brief: as §1

LCLC-97TM1 = test system: LCLC-97TM1
Method in brief: as §1

NCI-H1993 = test system: NCI-H1993
Method in brief: as §1

NCI-H1563 = test system: NCI-H1563
Method in brief: as §1

NCI-H661 = test system: NCI-H661
Method in brief: as §1

SK-LU-1 = test system: SK-LU-1
Method in brief: as §1

NCI-H2023 = test system: NCI-H2023
Method in brief: as §1

NCI-H1915 = test system: NCI-H1915
Method in brief: as §1

SW 1573 = test system: SW 1573
Method in brief: as §1

NCI-H322M = test system: NCI-H322M
Method in brief: as §1

EPLC-272H = test system: EPLC-272H
Method in brief: as §1

NCI-H2085 = test system: NCI-H2085
Method in brief: as §1

LXF-289 = test system: LXF-289
Method in brief: as §1

EMC-BAC-2 = test system: EMC-BAC-2
Method in brief: as §1

Compound `COc1cc2nccc(Oc3ccc(NC(=O)Nc4cc(C)on4)c(Cl)c3)c2cc1OC` [Tivozanib] + CS(=O)(=O)N1CCN(Cc2cc3nc(-c4cccc5[nH]ncc45)nc(N4CCOCC4)c3s2)CC1 [Pictilisib] (partner 1 µM) has a relative viability (HOP-62; first compound 0.005 µM) of 0.579, a relative viability (HOP-62; first compound 0.01581 µM) of 0.744 and a relative viability (HOP-62; first compound 0.05 µM) of 0.708. The relative viability (HOP-62; first compound 0.1581 µM) was 0.368, the relative viability (HOP-62; first compound 0.5 µM) was 0.649 and the relative viability (H3255; first compound 0.005 µM) was 0.451. For the same compound, the relative viability (H3255; first compound 0.01581 µM) was 0.435, the relative viability (H3255; first compound 0.05 µM) was 0.538 and the relative viability (H3255; first compound 0.1581 µM) was 0.449. The relative viability (H3255; first compound 0.5 µM) was 0.421, the relative viability (NCI-H2009; first compound 0.005 µM) was 0.811 and the relative viability (NCI-H2009; first compound 0.01581 µM) was 0.776. It also gave a relative viability (NCI-H2009; first compound 0.05 µM) of 0.833, a relative viability (NCI-H2009; first compound 0.1581 µM) of 0.633 and a relative viability (NCI-H2009; first compound 0.5 µM) of 0.663. For the same compound, the relative viability (NCI-H727; first compound 0.005 µM) was 0.349, the relative viability (NCI-H727; first compound 0.01581 µM) was 0.56 and the relative viability (NCI-H727; first compound 0.05 µM) was 0.351. It also gave a relative viability (NCI-H727; first compound 0.5 µM) of 0.398, a relative viability (NCI-H2347; first compound 0.005 µM) of 0.599 and a relative viability (NCI-H2347; first compound 0.01581 µM) of 0.53. For the same compound, the relative viability (NCI-H2347; first compound 0.05 µM) was 0.846, the relative viability (NCI-H2347; first compound 0.1581 µM) was 0.344 and the relative viability (NCI-H2347; first compound 0.5 µM) was 0.727. It also gave a relative viability (NCI-H1734; first compound 0.005 µM) of 0.45, a relative viability (NCI-H1734; first compound 0.01581 µM) of 0.443 and a relative viability (NCI-H1734; first compound 0.05 µM) of 0.456. It also gave a relative viability (NCI-H1734; first compound 0.1581 µM) of 0.359, a relative viability (NCI-H1734; first compound 0.5 µM) of 0.442 and a relative viability (NCI-H647; first compound 0.005 µM) of 0.419. For the same compound, the relative viability (NCI-H647; first compound 0.01581 µM) was 0.438, the relative viability (NCI-H647; first compound 0.05 µM) was 0.402 and the relative viability (NCI-H647; first compound 0.1581 µM) was 0.296. It also gave a relative viability (NCI-H647; first compound 0.5 µM) of 0.227, a relative viability (PC-14; first compound 0.005 µM) of 0.631 and a relative viability (PC-14; first compound 0.01581 µM) of 0.604. The relative viability (PC-14; first compound 0.05 µM) was 0.693, the relative viability (PC-14; first compound 0.1581 µM) was 0.51 and the relative viability (PC-14; first compound 0.5 µM) was 0.635. For the same compound, the relative viability (NCI-H2126; first compound 0.005 µM) was 0.41, the relative viability (NCI-H2126; first compound 0.01581 µM) was 0.533 and the relative viability (NCI-H2126; first compound 0.05 µM) was 0.489. For the same compound, the relative viability (NCI-H2126; first compound 0.1581 µM) was 0.36, the relative viability (NCI-H2126; first compound 0.5 µM) was 0.469 and the relative viability (LCLC-97TM1; first compound 0.005 µM) was 0.206. It also gave a relative viability (LCLC-97TM1; first compound 0.01581 µM) of 0.23, a relative viability (LCLC-97TM1; first compound 0.1581 µM) of 0.119 and a relative viability (LCLC-97TM1; first compound 0.5 µM) of 0.164. For the same compound, the relative viability (NCI-H1993; first compound 0.005 µM) was 0.845, the relative viability (NCI-H1993; first compound 0.01581 µM) was 0.782 and the relative viability (NCI-H1993; first compound 0.05 µM) was 0.875. For the same compound, the relative viability (NCI-H1993; first compound 0.1581 µM) was 0.709, the relative viability (NCI-H1993; first compound 0.5 µM) was 0.737 and the relative viability (NCI-H1563; first compound 0.005 µM) was 0.668. The relative viability (NCI-H1563; first compound 0.01581 µM) was 0.729, the relative viability (NCI-H1563; first compound 0.05 µM) was 0.622 and the relative viability (NCI-H1563; first compound 0.1581 µM) was 0.699. It also gave a relative viability (NCI-H1563; first compound 0.5 µM) of 0.581, a relative viability (NCI-H661; first compound 0.005 µM) of 0.37 and a relative viability (NCI-H661; first compound 0.01581 µM) of 0.339. It also gave a relative viability (NCI-H661; first compound 0.05 µM) of 0.55, a relative viability (NCI-H661; first compound 0.1581 µM) of 0.28 and a relative viability (NCI-H661; first compound 0.5 µM) of 0.38. It also gave a relative viability (SK-LU-1; first compound 0.005 µM) of 0.618, a relative viability (SK-LU-1; first compound 0.01581 µM) of 0.465 and a relative viability (SK-LU-1; first compound 0.05 µM) of 0.483. The relative viability (SK-LU-1; first compound 0.1581 µM) was 0.336, the relative viability (SK-LU-1; first compound 0.5 µM) was 0.55 and the relative viability (NCI-H2023; first compound 0.005 µM) was 0.238. The relative viability (NCI-H2023; first compound 0.01581 µM) was 0.228, the relative viability (NCI-H2023; first compound 0.05 µM) was 0.249 and the relative viability (NCI-H2023; first compound 0.1581 µM) was 0.178. The relative viability (NCI-H2023; first compound 0.5 µM) was 0.195, the relative viability (NCI-H1915; first compound 0.005 µM) was 0.936 and the relative viability (NCI-H1915; first compound 0.01581 µM) was 0.995. It also gave a relative viability (NCI-H1915; first compound 0.05 µM) of 0.901, a relative viability (NCI-H1915; first compound 0.1581 µM) of 0.485 and a relative viability (NCI-H1915; first compound 0.5 µM) of 0.742. It also gave a relative viability (SW 1573; first compound 0.005 µM) of 0.448, a relative viability (SW 1573; first compound 0.01581 µM) of 0.479 and a relative viability (SW 1573; first compound 0.05 µM) of 0.505. It also gave a relative viability (SW 1573; first compound 0.1581 µM) of 0.346, a relative viability (SW 1573; first compound 0.5 µM) of 0.406 and a relative viability (NCI-H322M; first compound 0.005 µM) of 0.484. For the same compound, the relative viability (NCI-H322M; first compound 0.01581 µM) was 0.518, the relative viability (NCI-H322M; first compound 0.05 µM) was 0.529 and the relative viability (NCI-H322M; first compound 0.1581 µM) was 0.465. For the same compound, the relative viability (NCI-H322M; first compound 0.5 µM) was 0.568, the relative viability (EPLC-272H; first compound 0.005 µM) was 0.311 and the relative viability (EPLC-272H; first compound 0.01581 µM) was 0.31. The relative viability (EPLC-272H; first compound 0.05 µM) was 0.326, the relative viability (EPLC-272H; first compound 0.1581 µM) was 0.285 and the relative viability (EPLC-272H; first compound 0.5 µM) was 0.162. For the same compound, the relative viability (NCI-H2085; first compound 0.005 µM) was 0.474, the relative viability (NCI-H2085; first compound 0.01581 µM) was 0.456 and the relative viability (NCI-H2085; first compound 0.05 µM) was 0.536. It also gave a relative viability (NCI-H2085; first compound 0.1581 µM) of 0.405, a relative viability (NCI-H2085; first compound 0.5 µM) of 0.408 and a relative viability (LXF-289; first compound 0.005 µM) of 0.736. It also gave a relative viability (LXF-289; first compound 0.01581 µM) of 0.814, a relative viability (LXF-289; first compound 0.05 µM) of 0.758 and a relative viability (LXF-289; first compound 0.1581 µM) of 0.764. For the same compound, the relative viability (LXF-289; first compound 0.5 µM) was 0.807, the relative viability (EMC-BAC-2; first compound 0.005 µM) was 0.561 and the relative viability (EMC-BAC-2; first compound 0.01581 µM) was 0.529. It also gave a relative viability (EMC-BAC-2; first compound 0.05 µM) of 0.554, a relative viability (EMC-BAC-2; first compound 0.1581 µM) of 0.389 and a relative viability (EMC-BAC-2; first compound 0.5 µM) of 0.578.
